Experiment [1] has as its system ErbB2+ breast cancer cell lines (BT474; SKBR3). Put plainly: Cell growth and viability assay (WST-1). Type of experiment: cell-based, human. As for the experimental part: (§1) UV irradiation was carried out in 6 or 96 well plate format in a UV Stratalinker 1800 (Statagene, LA Jolla, Calif.) at the UV doses indicated in the figures. Cell growth and viability assays were performed in a 96-well plate format in a final volume of 100 μl/well using the cell proliferation reagent WST-1 from Roche Diagnostics (Mannheim, Germany), as previously described. Details of the apoptosis assay have been previously described. Briefly, cells were treated in 12-well plates with 8MOP, UV irradiation, or lapatinib at the treatment conditions indicated in the Figure legends. Cells were harvested with trypsin-EDTA, and 5000 cells in final volume of 50 μl were sampled in 96-well microplates. Cells were directly stained with annexin V-PE and nexin 7-AAD in 1× Nexin Buffer in a 200 μl final reaction volume. After incubating at room temperature for 20 min, the reaction samples were analyzed in the Guava PCA-96-system (Guava Technology Inc. Hayward, Calif.).
A general note: Formazan colour is commonly taken as a measure of viable cells.

The next experiment deals with ErbB2. Nature of the experiment: Western blot analysis of ErbB2 signaling in ErbB2+ breast cancer cells. Type of experiment: cell-based, human. The method, then: (§2) Whole cell extracts were prepared by scraping cells off petri dishes, washing cell pellets 2× in phosphate buffered saline (PBS), and then re-suspending pellets in two-packed-cell volumes of RIPA buffer (150 mM NaCl, 50 mM Tris-HCl, pH 7.5, 0.25% (w/v) deoxycholate, 1% NP-40, 5 mM sodium orthovanadate, 2 mM sodium fluoride, and a protease inhibitor cocktail). Protein concentrations were determined using a modification of the Bradford method (Bio-Rad Labs, Hercules, Calif.). For Western blot analysis, equal amounts of proteins (25 to 50 μg) were resolved by either 7.5% or 4-15% gradient SDS polyacrylamide gel electrophoresis under reducing conditions as previously described. Proteins were transferred to nitrocellulose membranes and probed with primary antibodies specific for proteins of interest. After extensive washing, membranes were incubated with a secondary IRDye 800 conjugated anti-rabbit or mouse IgG, or Alexa Fluor 680 anti-rabbit IgG and proteins were visualized using the LI-COR Odyssey Infrared Imaging System (LI-COR, Inc., Lincoln, Nebr.).

A further experiment relates to MCF7 cells. Put plainly: Cell growth and viability assay (WST-1). Type of experiment: cell-based, human. To be noted: PUVA, 2.5 and 5 μM 8MOP; compared with ErbB2+ lines. As for the experimental part:
as §1

Experiment [2] deals with human foreskin fibroblast cell line (HFF). Put plainly: Cell growth and viability assay (WST-1). The experiment is classed as cell-based. To be noted: PUVA, 2.5 and 5 μM 8MOP; compared with ErbB2+ lines. The method, then:
as §1

The subject of experiment [3] is ErbB2+ breast cancer cells (BT474; SKBR3). Nature of the experiment: Apoptosis assay (annexin V-PE / 7-AAD). The experiment is classed as cell-based, human. As for the experimental part: as §1
Another experiment has as its system rBT474 and rSKBR3 cells. Put plainly: Cell growth and viability assay in lapatinib resistant cells. Type of experiment: cell-based, human. To be noted: PUVA; cells maintained in 1 μM lapatinib; dose-dependent. The source says:
ErbB2+(BT474; SKBR3) and ErbB2 negative (MCF-7; T47D) human breast cancer cell lines, and the human foreskin fibroblast (HFF) cell line were obtained from the American Type Culture Collection (Manassas, Va.). Lapatinib resistant breast cancer cells (rBT474; rSKBR3) were generated and maintained in culture as previously described. Cells were maintained in RPMI-1640 supplemented with 10% fetal bovine serum and L-glutamine from GIBCO (Grand Island, N.Y.) growing in a humidified atmosphere of 5% CO2 at 37° C. IRDye 800 conjugated affinity purified anti-rabbit IgG and anti-mouse IgG were from Rockland (Gilbertsville, Pa.). Alexa Fluor 680 goat anti-rabbit IgG were purchased from Molecular Probes (Eugene, Oreg.). Anti-PARP (Poly (ADP-ribose) Polymerase) monoclonal antibody was from BD PharMingen (San Jose, Calif.). 8-Methoxypsoralen (8MOP) and the 4G10 anti-phosphotyrosine (p-tyr) antibody were purchased from Sigma-Aldrich (St. Louis, Mo.). Monoclonal antibodies to c-ErbB2 and EGFR were purchased from Neo Markers (Union City, Calif.). […]
UV irradiation was carried out in 6 or 96 well plate format in a UV Stratalinker 1800 (Statagene, LA Jolla, Calif.) at the UV doses indicated in the figures. […] After incubating at room temperature for 20 min, the reaction samples were analyzed in the Guava PCA-96-system (Guava Technology Inc. Hayward, Calif.).

Experiment [4] concerns EGFR, ErbB3, Akt, PARP in rBT474 and rSKBR3. Put plainly: Western blot analysis in lapatinib resistant cells. Type of experiment: cell-based, human. As for the experimental part:
as §2

For a further experiment, the system named is T47D cells. Put plainly: Growth and apoptosis in T47D and p85ErbB2 transfected T47D cells. The experiment is classed as cell-based, human. As for the experimental part:
as §1
(§3) The c-terminal fragment (p85^ErbB2) was generated based on ErbB2 open reading frames and sub-cloned into the pcDNA 3.1 (+) as previously described. HER2 negative T47D breast cancer cells were transfected with the p85 expressing vector using the Lipofectamine™ 2000 Reagent from Invitrogen (Carlsbad, Calif.) as previously described. […]

The subject of a further experiment is p85^ErbB2. Nature of the experiment: Western blot of phospho-p85ErbB2 in stably transfected T47D cells. The experiment is classed as cell-based, human. To be noted: p85 expressing T47D cells; 5 μM lapatinib or 5 μM 8MOP 4 hr, then UV irradiation. As for the experimental part: as §2, §3
In general terms: In western blotting, separated proteins are transferred to a membrane and probed.

`Cc1c2occc2cc2c1oc(=O)c1cnccc12` [7-methylpyridopsoralen]: the “growth and viability of ErbB2+ breast cancer cells” value in experiment [1] (upon photo-activation (UVA irradiation), 72 hr, BT474 and SKBR3) is reported as “significantly inhibited”. Besides, the “phosphorylated and total ErbB2 protein expression” value in the experiment on ErbB2 (upon photo-activation (UVA irradiation)) is reported as “inhibition”.

Consider `COc1c2occc2cc2ccc(=O)oc12` [8MOP, 8-Methoxypsoralen], for which the cell viability entry in experiment [1] (8MOP alone, no UV irradiation) was “relatively little effect”. Besides, in experiment [1] (PUVA: 8MOP 4 hr pre-treatment, UVA irradiation (2J), 72 hr, dose-dependent), the “growth and viability of ErbB2+ breast cancer cell lines” value was “significantly inhibited”. Besides, the “growth and viability of MCF7 cells” value in the experiment with MCF7 cells is listed as “relatively less effect”. In addition, the “growth and viability of HFF cells” value in experiment [2] is “relatively less effect”. The apoptosis result in experiment [3] (PUVA: 8MOP + UVA irradiation (2J), 72 hr) is given as “induction of apoptosis”. Also, the ErbB2 signaling entry in the experiment on ErbB2 (8MOP alone, no UV irradiation) is “relatively little effect”. In addition, the “phosphorylated forms of Akt and Erk1/2” value with ErbB2 (PUVA (8MOP + UVA)) is given as “inhibited”. Also, the “steady-state protein levels of phosphorylated ErbB2” value in the experiment on ErbB2 (PUVA (8MOP + UVA), dose-dependent) is on record as “reduced”. Moreover, the “total ErbB2 protein levels” value in the experiment with ErbB2 (higher doses of PUVA therapy) is “reduced”. Also, the “tumor cell growth and viability” value with rBT474 and rSKBR3 cells was “significantly reduced”. Also, in [4] (PUVA-treated lapatinib resistant tumor cells), the PARP cleavage product result is “increased”. Besides, in [4] (PUVA-treated rBT474 and rSKBR3), the “expression of phosphorylated EGFR (Y992), ErbB3 (Y1197) and Akt (T308)” value was “reduction”; the “total EGFR and ErbB3 protein expression” value was “markedly reduced”. In addition, the “antitumor effect (growth)” value with T47D cells (T47D cells transfected with empty vector alone) is “antitumor effect”. In addition, the tumor cell apoptosis result with T47D cells (p85 expressing T47D cells) is on record as “triggering tumor cell apoptosis”. In the experiment with p85^ErbB2, the p85ErbB2 phosphorylation entry is recorded as “markedly inhibited”.

Take `CS(=O)(=O)CCNCc1ccc(-c2ccc3ncnc(Nc4ccc(OCc5cccc(F)c5)c(Cl)c4)c3c2)o1` [lapatinib]: the p85ErbB2 phosphorylation entry in the experiment on p85^ErbB2 was “not inhibited”.

On to `CCOc1cc2ncc(C#N)c(Nc3ccc(OCc4ccccn4)c(Cl)c3)c2cc1NC(=O)/C=C/CN(C)C` [neratinib], for which, in experiment [1] (combination of 8-MOP, UVA irradiation and neratinib, each at sub-lethal doses), the cell viability result is reported as “significantly enhanced inhibition”. The “apoptosis in ErbB2+ breast cancer cells” value in [3] (neratinib at sub-lethal doses combined with PUVA) was “significantly increased”. The “total ErbB2 and ErbB3 protein expression” value in the experiment on ErbB2 (neratinib in combination with UVA irradiation alone, more pronounced in SKBR3) is recorded as “further loss”. In the experiment with ErbB2 (neratinib treatment alone), the “p-Akt (S473) expression” value is “loss”; the “total ErbB2 and ErbB3 protein levels” value was “marked reduction”.

The record behind these values is patent publication US9439897B2, “Use of psoralen derivatives and combination therapy for treatment of cell proliferation disorders” (IMMUNOLIGHT, LLC, priority 2014, dated 2016).
